This assay concerns the target T1, human NTPDase1 (Homo sapiens, UniProt P49961).
T1 sequence (P49961 1-510): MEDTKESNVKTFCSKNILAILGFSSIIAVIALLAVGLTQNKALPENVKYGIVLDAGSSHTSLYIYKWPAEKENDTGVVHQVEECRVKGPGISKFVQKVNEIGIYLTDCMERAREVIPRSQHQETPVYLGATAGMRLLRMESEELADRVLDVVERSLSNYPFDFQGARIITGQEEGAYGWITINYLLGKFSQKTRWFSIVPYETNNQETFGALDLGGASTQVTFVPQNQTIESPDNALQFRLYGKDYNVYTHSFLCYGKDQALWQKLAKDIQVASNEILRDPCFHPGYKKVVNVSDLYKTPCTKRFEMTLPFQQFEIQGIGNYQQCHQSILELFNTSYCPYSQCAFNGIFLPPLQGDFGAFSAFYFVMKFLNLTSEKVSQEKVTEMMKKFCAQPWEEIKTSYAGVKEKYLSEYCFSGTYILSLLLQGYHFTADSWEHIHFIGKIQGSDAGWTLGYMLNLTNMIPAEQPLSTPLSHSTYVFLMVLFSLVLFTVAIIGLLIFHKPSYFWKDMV
Kind of assay: Capillary electrophoresis assay for human NTPDase1. The assay is classed as biochemical. As to conditions: ATP (100 μM) as substrate. As for the experimental part:
Inhibitory activity of the CD73 inhibitors 2 and 20 at human NTPDases 1, 2, 3, and 8 was investigated using ATP (100 μM) as a substrate according to previously published procedures.^24 ATP and 2 were co-incubated with recombinantly expressed human NTPDases at 37° C. for 30 min, and the enzymatic reaction was terminated by heating at 90° C. for 10 min. The amount of enzyme preparation was adjusted to ensure 10-20% of substrate conversion. The formed products were separated by capillary electrophoresis (CE) and individually quantitated by diode array detection (DAD) at a wavelength of 260 nm. For inhibition analysis, at least three independent experiments were performed each in triplicate. The inhibition of the enzyme activity was calculated in relation to the positive control without inhibitor and plotted by GraphPad Prism 8 software (GraphPad software, San Diego, CA, USA) (for results see Table 2 and Table 3).
Test compounds were investigated at a concentration of 50 μM, and 100 μM ATP substrate according to published procedures.^24 Recombinantly expressed human NTPDases were employed. The amount of enzyme preparation was adjusted to ensure 10-20% of substrate conversion. […] The inhibition of the enzyme activity was calculated in relation to the positive control without inhibitor and plotted in GraphPad Prism 8 software (GraphPad software, San Diego, CA, USA). […]

For orientation: IC50 means the midpoint of a concentration-inhibition curve. A low value points to inhibition by little substance.

As for `CCCN(Cc1ccc(-c2cn(CCF)nn2)cc1)c1nc(Cl)nc2c1ncn2[C@@H]1O[C@H](COP(=O)(O)CP(=O)(O)O)C(O)C1O` (some centres unmarked) [Compound 2], the IC50 is over 50 µM.

Take `O=C(NCCCCCCNC(=O)c1ccc2c(c1)C1(OC2=O)c2ccc(O)cc2Oc2cc(O)ccc21)c1ccc(CNc2nc(Cl)nc3c2ncn3[C@@H]2O[C@H](COP(=O)(O)CP(=O)(O)O)[C@@H](O)[C@H]2O)cc1` [Compound 20, (((((2R,3S,4R,5R)-5-(2-chloro-6-((4-((6-(3′,6′-dihydroxy-3-oxo-3H-spiro[isobenzofuran-1,9′-xanthene]-6-carboxamido)-hexyl)carbamoyl)benzyl)amino)-9H-purin-9-yl)-3,4-dihydroxytetrahydrofuran-2-yl)methoxy)(hydroxy)phosphoryl)methyl)phosphonic acid]: the IC50 is 27.6 µM.

For the origin of these results see patent US20250382322A1, “DIAGNOSTICS FOR DETECTING ECTO-5'-NUCLEOTIDASE (CD73)” (EBERHARD KARLS UNIVERSITÄT TÜBINGEN, priority 2022, published 2025).
